Measurements as given in paper PMC2825141 (Journal of medicinal chemistry, 2009).

Columns and labels:
[1] = molecular target: T1, G9a (Homo sapiens, UniProt Q96KQ7); experiment: DSF stabilization of G9a; format: binding; conditions: compared to 2a
T1 sequence (Q96KQ7 1-1210): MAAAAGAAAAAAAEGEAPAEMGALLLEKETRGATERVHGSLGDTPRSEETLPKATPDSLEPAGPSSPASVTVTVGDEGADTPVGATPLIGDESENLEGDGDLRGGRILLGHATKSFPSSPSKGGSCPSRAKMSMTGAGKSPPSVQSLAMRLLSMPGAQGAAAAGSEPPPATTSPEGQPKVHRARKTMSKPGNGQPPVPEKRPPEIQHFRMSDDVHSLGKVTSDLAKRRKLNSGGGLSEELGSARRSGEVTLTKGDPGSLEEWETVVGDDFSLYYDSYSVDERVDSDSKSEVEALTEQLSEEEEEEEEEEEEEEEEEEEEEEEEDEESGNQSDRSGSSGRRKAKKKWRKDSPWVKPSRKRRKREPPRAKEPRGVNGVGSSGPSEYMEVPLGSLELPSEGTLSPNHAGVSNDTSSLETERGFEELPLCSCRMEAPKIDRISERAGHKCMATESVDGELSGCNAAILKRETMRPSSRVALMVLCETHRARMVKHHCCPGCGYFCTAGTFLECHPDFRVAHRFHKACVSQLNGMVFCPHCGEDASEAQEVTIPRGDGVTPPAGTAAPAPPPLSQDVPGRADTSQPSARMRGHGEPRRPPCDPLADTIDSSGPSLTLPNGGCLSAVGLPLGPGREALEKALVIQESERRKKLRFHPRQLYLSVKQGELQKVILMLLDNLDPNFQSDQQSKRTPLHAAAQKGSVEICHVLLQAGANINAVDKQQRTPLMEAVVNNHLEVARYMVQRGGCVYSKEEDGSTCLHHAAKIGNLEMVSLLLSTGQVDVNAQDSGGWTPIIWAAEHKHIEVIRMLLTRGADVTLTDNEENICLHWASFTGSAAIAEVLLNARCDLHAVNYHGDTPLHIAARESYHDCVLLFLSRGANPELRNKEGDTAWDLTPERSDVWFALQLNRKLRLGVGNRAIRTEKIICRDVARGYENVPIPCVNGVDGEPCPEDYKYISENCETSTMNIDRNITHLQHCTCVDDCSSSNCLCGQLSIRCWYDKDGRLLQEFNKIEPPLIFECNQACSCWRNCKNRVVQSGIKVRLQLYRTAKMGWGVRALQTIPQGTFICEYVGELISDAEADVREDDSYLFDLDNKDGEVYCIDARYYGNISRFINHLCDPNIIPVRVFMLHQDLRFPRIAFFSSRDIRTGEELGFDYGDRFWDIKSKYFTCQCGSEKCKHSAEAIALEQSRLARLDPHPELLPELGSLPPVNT

[2] = molecular target: T1, G9a; experiment: G9a FP assay; format: binding; conditions: compared to 2a

SMILES: COc1cc2c(NC3CCN(C)CC3)nc(N3CCCN(C)CC3)nc2cc1OCCCN(C)C [Compound 8]
- Stabilization of G9a in DSF [1]: stabilized G9a better compared to 2a
- Displacement of fluorescein labeled 15-mer H3 peptide (1–15) [2]: displaced fluorescein labeled 15-mer H3 peptide (1–15) better than 2a
